Experiments:
Tosedostat + AZD7762 = compound: CC(C)C[C@@H](C(=O)N[C@H](C(=O)OC1CCCC1)c1ccccc1)[C@H](O)C(=O)NO [Tosedostat] + NC(=O)Nc1cc(-c2cccc(F)c2)sc1C(=O)N[C@H]1CCCNC1 [AZD7762] (partner 0.2 µM); assay: relative viability (nuclei count vs DMSO), 5 days (fraction); higher = more cells survive
Method in brief: (§1)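 Five library-drug doses in √10 steps were combined with a fixed anchor-drug dose, or a single drug was given alone, by pin tool to lung cancer cell lines in 1536-well plates the day after seeding. Nuclei were stained and counted after 5 days. Relative viability is the nuclei count in treated wells over that in vehicle wells, taken as the median of duplicate plates.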

Tosedostat + Trametinib = compound: CC(C)C[C@@H](C(=O)N[C@H](C(=O)OC1CCCC1)c1ccccc1)[C@H](O)C(=O)NO [Tosedostat] + CC(=O)Nc1cccc(-n2c(=O)n(C3CC3)c(=O)c3c(Nc4ccc(I)cc4F)n(C)c(=O)c(C)c32)c1 [Trametinib] (partner 0.02 µM); assay: as above
Method in brief: as §1

**Q.** For NCI-H2342, which relative viability (Tosedostat + AZD7762; first compound 0.02 µM) is on record?
**A.** 0.512

**Q.** And the relative viability (Tosedostat + AZD7762; first compound 0.06325 µM)?
**A.** 0.599

**Q.** What about the relative viability (Tosedostat + AZD7762; first compound 0.2 µM) of the same cell line?
**A.** 0.446

**Q.** What about the relative viability (Tosedostat + AZD7762; first compound 0.6325 µM) of the same cell line?
**A.** 0.41

**Q.** What about the relative viability (Tosedostat + AZD7762; first compound 2 µM) of the same cell line?
**A.** 0.432

**Q.** And the relative viability (Tosedostat + Trametinib; first compound 0.02 µM)?
**A.** 0.808

**Q.** And the relative viability (Tosedostat + Trametinib; first compound 0.06325 µM)?
**A.** 0.797

**Q.** And the relative viability (Tosedostat + Trametinib; first compound 0.2 µM)?
**A.** 0.93

**Q.** And the relative viability (Tosedostat + Trametinib; first compound 0.6325 µM)?
**A.** 0.903

**Q.** What about the relative viability (Tosedostat + Trametinib; first compound 2 µM) of the same cell line?
**A.** 0.919

**Q.** How did the relative viability (Tosedostat + AZD7762; first compound 0.02 µM) turn out when NCI-H2347 was run?
**A.** 0.631

**Q.** And the relative viability (Tosedostat + AZD7762; first compound 0.06325 µM)?
**A.** 0.821

**Q.** What about the relative viability (Tosedostat + AZD7762; first compound 0.2 µM) of the same cell line?
**A.** 0.863

**Q.** What about the relative viability (Tosedostat + AZD7762; first compound 0.6325 µM) of the same cell line?
**A.** 0.745

**Q.** What about the relative viability (Tosedostat + AZD7762; first compound 2 µM) of the same cell line?
**A.** 0.682

**Q.** And the relative viability (Tosedostat + Trametinib; first compound 0.02 µM)?
**A.** 0.297

**Q.** And the relative viability (Tosedostat + Trametinib; first compound 0.06325 µM)?
**A.** 0.295

**Q.** What about the relative viability (Tosedostat + Trametinib; first compound 0.2 µM) of the same cell line?
**A.** 0.33

**Q.** And the relative viability (Tosedostat + Trametinib; first compound 0.6325 µM)?
**A.** 0.262

**Q.** And the relative viability (Tosedostat + Trametinib; first compound 2 µM)?
**A.** 0.321

**Q.** Which results are given for NCI-H2405?
**A.** relative viability (Tosedostat + AZD7762; first compound 0.02 µM): 0.817; relative viability (Tosedostat + AZD7762; first compound 0.06325 µM): 0.744; relative viability (Tosedostat + AZD7762; first compound 0.2 µM): 0.718; relative viability (Tosedostat + AZD7762; first compound 0.6325 µM): 0.652; relative viability (Tosedostat + AZD7762; first compound 2 µM): 0.715; relative viability (Tosedostat + Trametinib; first compound 0.02 µM): 0.652; relative viability (Tosedostat + Trametinib; first compound 0.06325 µM): 0.657; relative viability (Tosedostat + Trametinib; first compound 0.2 µM): 0.79; relative viability (Tosedostat + Trametinib; first compound 0.6325 µM): 0.699; relative viability (Tosedostat + Trametinib; first compound 2 µM): 0.614

**Q.** Which results are given for NCI-H3122?
**A.** relative viability (Tosedostat + AZD7762; first compound 0.02 µM): 1.1; relative viability (Tosedostat + AZD7762; first compound 0.06325 µM): 0.919; relative viability (Tosedostat + AZD7762; first compound 0.2 µM): 0.894; relative viability (Tosedostat + AZD7762; first compound 0.6325 µM): 0.875; relative viability (Tosedostat + AZD7762; first compound 2 µM): 1.14; relative viability (Tosedostat + Trametinib; first compound 0.02 µM): 0.201; relative viability (Tosedostat + Trametinib; first compound 0.06325 µM): 0.258; relative viability (Tosedostat + Trametinib; first compound 0.2 µM): 0.193; relative viability (Tosedostat + Trametinib; first compound 0.6325 µM): 0.25; relative viability (Tosedostat + Trametinib; first compound 2 µM): 0.183

**Q.** Which results are given for PC-3 [JPC-3]?
**A.** relative viability (Tosedostat + AZD7762; first compound 0.02 µM): 0.752; relative viability (Tosedostat + AZD7762; first compound 0.06325 µM): 0.747; relative viability (Tosedostat + AZD7762; first compound 0.2 µM): 0.746; relative viability (Tosedostat + AZD7762; first compound 0.6325 µM): 0.647; relative viability (Tosedostat + AZD7762; first compound 2 µM): 0.54; relative viability (Tosedostat + Trametinib; first compound 0.02 µM): 0.752; relative viability (Tosedostat + Trametinib; first compound 0.06325 µM): 0.629; relative viability (Tosedostat + Trametinib; first compound 0.2 µM): 0.733; relative viability (Tosedostat + Trametinib; first compound 0.6325 µM): 0.614; relative viability (Tosedostat + Trametinib; first compound 2 µM): 0.514

**Q.** Which results are given for PC-14?
**A.** relative viability (Tosedostat + AZD7762; first compound 0.02 µM): 0.434; relative viability (Tosedostat + AZD7762; first compound 0.06325 µM): 0.352; relative viability (Tosedostat + AZD7762; first compound 0.2 µM): 0.314; relative viability (Tosedostat + AZD7762; first compound 0.6325 µM): 0.273; relative viability (Tosedostat + AZD7762; first compound 2 µM): 0.0971; relative viability (Tosedostat + Trametinib; first compound 0.02 µM): 0.856; relative viability (Tosedostat + Trametinib; first compound 0.06325 µM): 0.758; relative viability (Tosedostat + Trametinib; first compound 0.2 µM): 0.781; relative viability (Tosedostat + Trametinib; first compound 0.6325 µM): 0.67; relative viability (Tosedostat + Trametinib; first compound 2 µM): 0.531

**Q.** Which results are given for RERF-LC-KJ?
**A.** relative viability (Tosedostat + AZD7762; first compound 0.02 µM): 1.12; relative viability (Tosedostat + AZD7762; first compound 0.06325 µM): 1.08; relative viability (Tosedostat + AZD7762; first compound 0.2 µM): 1.08; relative viability (Tosedostat + AZD7762; first compound 0.6325 µM): 0.912; relative viability (Tosedostat + AZD7762; first compound 2 µM): 0.664; relative viability (Tosedostat + Trametinib; first compound 0.02 µM): 0.878; relative viability (Tosedostat + Trametinib; first compound 0.06325 µM): 0.784; relative viability (Tosedostat + Trametinib; first compound 0.2 µM): 0.81; relative viability (Tosedostat + Trametinib; first compound 0.6325 µM): 0.782; relative viability (Tosedostat + Trametinib; first compound 2 µM): 0.686

**Q.** With SW 900 as the cell line, how does the relative viability (Tosedostat + AZD7762; first compound 0.02 µM) read?
**A.** 0.56

**Q.** And the relative viability (Tosedostat + AZD7762; first compound 0.06325 µM)?
**A.** 0.603

**Q.** And the relative viability (Tosedostat + AZD7762; first compound 0.2 µM)?
**A.** 0.644

**Q.** And the relative viability (Tosedostat + AZD7762; first compound 0.6325 µM)?
**A.** 0.661

**Q.** And the relative viability (Tosedostat + AZD7762; first compound 2 µM)?
**A.** 0.556

**Q.** What about the relative viability (Tosedostat + Trametinib; first compound 0.02 µM) of the same cell line?
**A.** 0.696

**Q.** And the relative viability (Tosedostat + Trametinib; first compound 0.06325 µM)?
**A.** 0.754

**Q.** What about the relative viability (Tosedostat + Trametinib; first compound 0.2 µM) of the same cell line?
**A.** 0.777

**Q.** And the relative viability (Tosedostat + Trametinib; first compound 0.6325 µM)?
**A.** 0.639

**Q.** And the relative viability (Tosedostat + Trametinib; first compound 2 µM)?
**A.** 0.609
